Experimental data: PubChem BioAssay (NCI)
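1) Cells in 96-well plates. 2) Compound, 48 h, 5 concentrations. 3) Linear interpolation between surrounding doses. 4) Unreached endpoint = highest concentration. Here, GI50 denotes the concentration required for 50% inhibition of growth. Definition used: TGI = concentration required for complete inhibition of growth.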

Key:
Test in all cases: growth of human tumour cells (NCI), 48 h; in the data active means GI50 below about 0.43 µM; inactive means the rest
[1] = tested on: 786-0 renal
[2] = tested on: A498 renal
[3] = tested on: A549 NSCLC
[4] = tested on: ACHN renal
[5] = tested on: BT-549 breast
[6] = tested on: CAKI-1 renal
[7] = tested on: CCRF-CEM leukemia
[8] = tested on: DU-145 prostate
[9] = tested on: EKVX NSCLC
[10] = tested on: HCC-2998 colon
[11] = tested on: HCT-116 colon
[12] = tested on: HCT-15 colon
[13] = tested on: HL-60(TB) leukemia
[14] = tested on: HOP-62 NSCLC
[15] = tested on: HOP-92 NSCLC
[16] = tested on: HS 578T breast
[17] = tested on: HT29 colon
[18] = tested on: K-562 leukemia
[19] = tested on: KM12 colon
[20] = tested on: LOX IMVI melanoma
[21] = tested on: M14 melanoma
[22] = tested on: MALME-3M melanoma
[23] = tested on: MCF7 breast
[24] = tested on: MDA-MB-435
[25] = tested on: MOLT-4 leukemia
[26] = tested on: NCI-H23 lung
[27] = tested on: NCI-H460 lung
[28] = tested on: NCI-H522 lung
[29] = tested on: NCI/ADR-RES ovarian
[30] = tested on: OVCAR-3 ovarian
[31] = tested on: OVCAR-4 ovarian
[32] = tested on: OVCAR-5 ovarian
[33] = tested on: OVCAR-8 ovarian
[34] = tested on: PC-3 prostate
[35] = tested on: RXF 393 renal
[36] = tested on: SF-268 CNS
[37] = tested on: SF-295 CNS
[38] = tested on: SF-539 CNS
[39] = tested on: SK-MEL-2 melanoma
[40] = tested on: SK-MEL-28 melanoma
[41] = tested on: SK-OV-3 ovarian
[42] = tested on: SN12C renal
[43] = tested on: SNB-19 CNS
[44] = tested on: SNB-75 CNS
[45] = tested on: SR leukemia
[46] = tested on: SW-620 colon
[47] = tested on: T-47D breast
[48] = tested on: TK-10 renal
[49] = tested on: U251 CNS
[50] = tested on: UACC-257 melanoma
[51] = tested on: UACC-62 melanoma
[52] = tested on: UO-31 renal
[53] = tested on: COLO 205 colon
[54] = tested on: IGROV1 ovarian
[55] = tested on: MDA-MB-231 breast
[56] = tested on: NCI-H226 lung
[57] = tested on: RPMI-8226 leukemia
[58] = tested on: SK-MEL-5 melanoma

COC(C(=O)[C@@H](O)[C@@H](C)O)[C@@H]1Cc2cc3cc(O[C@H]4C[C@@H](O[C@H]5C[C@@H](O)[C@H](O)C(C)O5)[C@H](O)C(C)O4)c(C)c(O)c3c(O)c2C(=O)[C@H]1O[C@H]1C[C@@H](O[C@H]2C[C@@H](O[C@H]3C[C@@H](O)[C@@H](O)C(C)O3)[C@@H](O)C(C)O2)[C@H](O)C(C)O1 (stereo not given in full)
2.82 µM: TGI [38]
0.283 µM: TGI [51]
1.11 µM: TGI [39]
0.278 µM: TGI [2]
9.05 µM: TGI [26]
inactive: GI50 [3] 0.674 µM | GI50 [4] 0.485 µM | GI50 [6] 5.78 µM | GI50 [7] 1.84 µM | GI50 [8] 0.61 µM | GI50 [9] 0.78 µM | GI50 [10] 0.569 µM | GI50 [12] 6.59 µM | GI50 [13] 6.61 µM | GI50 [21] 0.633 µM | GI50 [25] 1.04 µM | GI50 [29] > 32.5 µM | GI50 [31] 0.571 µM | GI50 [32] 0.485 µM | GI50 [33] 0.514 µM | GI50 [34] 0.914 µM | GI50 [46] 0.715 µM | GI50 [48] 0.873 µM | GI50 [52] 0.605 µM
3.7 µM: TGI [44]
1.62 µM: TGI [28]
2.03 µM: TGI [15]
11.3 µM: TGI [19]
4.42 µM: TGI [5]
1.93 µM: TGI [40]
0.471 µM: TGI [20]
8.76 µM: TGI [30]
7.74 µM: TGI [10]
12.3 µM: TGI [16]
2.41 µM: TGI [22]
> 32.5 µM: TGI [1] | TGI [3] | TGI [4] | TGI [6] | TGI [7] | TGI [8] | TGI [9] | TGI [11] | TGI [12] | TGI [13] | TGI [14] | TGI [17] | TGI [18] | TGI [23] | TGI [25] | TGI [27] | TGI [29] | TGI [31] | TGI [32] | TGI [33] | TGI [34] | TGI [36] | TGI [37] | TGI [41] | TGI [42] | TGI [43] | TGI [45] | TGI [46] | TGI [47] | TGI [48] | TGI [49]
2.99 µM: TGI [24]
active: GI50 [1] 0.305 µM | GI50 [2] 0.0542 µM | GI50 [5] 0.149 µM | GI50 [11] 0.275 µM | GI50 [14] 0.189 µM | GI50 [15] 0.119 µM | GI50 [16] 0.126 µM | GI50 [17] 0.368 µM | GI50 [18] 0.312 µM | GI50 [19] 0.207 µM | GI50 [20] 0.0639 µM | GI50 [22] 0.114 µM | GI50 [23] 0.0415 µM | GI50 [24] 0.27 µM | GI50 [26] 0.242 µM | GI50 [27] 0.104 µM | GI50 [28] 0.058 µM | GI50 [30] 0.232 µM | GI50 [35] 0.202 µM | GI50 [36] 0.207 µM | GI50 [37] 0.196 µM | GI50 [38] 0.147 µM | GI50 [39] 0.172 µM | GI50 [40] 0.147 µM | GI50 [41] 0.422 µM | GI50 [42] 0.265 µM | GI50 [43] 0.324 µM | GI50 [44] 0.165 µM | GI50 [45] 0.112 µM | GI50 [47] 0.106 µM | GI50 [49] 0.121 µM | GI50 [50] 0.295 µM | GI50 [51] 0.0564 µM
1.01 µM: TGI [35]
4.75 µM: TGI [52]
7.61 µM: TGI [21]
2.04 µM: TGI [50]

NNc1nc(-c2ccccn2)nc2sc3c(c12)CCCCCC3
63.9 µM: TGI [4]
25.2 µM: TGI [1]
57.5 µM: TGI [27]
49.6 µM: TGI [49]
24.5 µM: TGI [57]
24.1 µM: TGI [58]
46.8 µM: TGI [21]
93.7 µM: TGI [30]
52.3 µM: TGI [29]
11.8 µM: TGI [2]
89.1 µM: TGI [56]
77.4 µM: TGI [50]
95.9 µM: TGI [44]
43 µM: TGI [35]
18.7 µM: TGI [52]
22.7 µM: TGI [25]
25.6 µM: TGI [6]
48.6 µM: TGI [15]
48.8 µM: TGI [51]
36.3 µM: TGI [13]
inactive: GI50 [1] 5.65 µM | GI50 [2] 1.86 µM | GI50 [3] 3.18 µM | GI50 [4] 4.87 µM | GI50 [5] 9.73 µM | GI50 [6] 0.575 µM | GI50 [7] 4.42 µM | GI50 [53] 5.07 µM | GI50 [8] 9.48 µM | GI50 [10] 8.31 µM | GI50 [11] 3.53 µM | GI50 [12] 1.12 µM | GI50 [13] 4.46 µM | GI50 [14] 8.57 µM | GI50 [15] 3.54 µM | GI50 [16] 11 µM | GI50 [17] 5.53 µM | GI50 [54] 4.21 µM | GI50 [18] 3.78 µM | GI50 [19] 6.46 µM | GI50 [20] 6.17 µM | GI50 [21] 5.46 µM | GI50 [23] 3.84 µM | GI50 [55] 12.7 µM | GI50 [24] 5.17 µM | GI50 [25] 3.67 µM | GI50 [56] 10.3 µM | GI50 [26] 9 µM | GI50 [27] 4.22 µM | GI50 [28] 12.1 µM | GI50 [29] 0.453 µM | GI50 [30] 5.31 µM | GI50 [31] 10.4 µM | GI50 [32] 8.61 µM | GI50 [33] 4.39 µM | GI50 [34] 3.98 µM | GI50 [57] 3.25 µM | GI50 [35] 6.8 µM | GI50 [36] 7.25 µM | GI50 [38] 10.9 µM | GI50 [39] 14.4 µM | GI50 [40] 14.9 µM | GI50 [58] 3.16 µM | GI50 [41] 30.9 µM | GI50 [42] 6.36 µM | GI50 [44] 12.6 µM | GI50 [46] 4.53 µM | GI50 [47] 5.01 µM | GI50 [48] 9.16 µM | GI50 [49] 4.5 µM | GI50 [50] 6.61 µM | GI50 [51] 5.96 µM | GI50 [52] 1.03 µM
68.3 µM: TGI [28]
> 100 µM: TGI [3] | TGI [5] | TGI [7] | TGI [53] | TGI [8] | TGI [10] | TGI [11] | TGI [12] | TGI [14] | TGI [16] | TGI [17] | TGI [54] | TGI [18] | TGI [20] | TGI [23] | TGI [55] | TGI [24] | TGI [26] | TGI [31] | TGI [32] | TGI [33] | TGI [34] | TGI [36] | TGI [38] | TGI [39] | TGI [40] | TGI [41] | TGI [42] | TGI [46] | TGI [47] | TGI [48]
99 µM: TGI [19]
